{"source": "patent US20070021351A1", "about": "“Liver/plasma concentration ratio for dosing hepatitis C virus protease inhibitor” (Schering Corporation, priority 2005, published 2007)", "key": {"[1]": {"test_system": "HCV replicon (bicistronic subgenomic replicon, genotype 1b)", "assay": "HCV replicon system, 72 hour assay in HuH-7 cells", "assay_type": "cell-based", "excerpt": "Changes in replicon RNA level are compared to an internal control, such as cellular glyceraldehydes-3-phosphate dehydrogenas (GAPDH) messenger RNA levels, in a single-tube multiplex reaction. […] Therefore, it is contemplated that compound of Formula Ia administration to a subject in need thereof according to the present invention results in about a 0.5- to about 4.0-log decrease in viral load RNA levels, preferably about a 1.0- to about 3.0-log decrease in viral load RNA.\nReplicon systems are well-established surrogates for viral replication as there is no HCV viral culture system. The HCV replicon is a non-infectious genotype 1b viral genome in which the sequences encoding the structural proteins at the 5′ end of the RNA have been replaced by a selectable marker, neoR.\nNS3-mediated cleavage of the HCV polyprotein releases functional viral proteins essential for viral propagation. Therefore, blockage of NS3 protease activity by compound of Formula Ia is expected to inhibit viral replication in infected host cells."}, "HCV": {"test_system": "HCV", "assay": "Suppression of virus in serum after about two weeks of administration", "assay_type": "in vivo", "details": "threshold of detectability"}, "[2]": {"assay": "Pharmacokinetic parameter values on administration to a subject (summary)", "assay_type": "in vivo", "description": "When the compounds are administered in fed subjects the bioavailability of the compound is increased about 100% and the mean Tmax of the compound of Formula Ia is increased about 60%."}, "[3]": {"assay": "Example 2: food-effect crossover study, 600 mg single dose, healthy adult subjects", "assay_type": "in vivo, human", "description": "This was a randomized, open-label, single-dose, two-treatment (fed or fasted), two-period, two-sequence crossover study of the effect of food on the bioavailability of compound of Formula Ia in 23 healthy adult male and female subjects. The primary pharmacokinetic parameters were AUC(I) and Cmax for compound of Formula Ia. The study included a 7-day wash-out period between treatment periods.\nSubjects were confined at the study site at least 14 hours prior to each treatment (Day-1). On the morning of Day 1, following a 10-hour overnight fast, subjects were randomized to receive in a particular order Treatment A and Treatment B: • Treatment A: compound of Formula Ia 600 mg (6×100 mg capsules) PO following an overnight fast. • Treatment B: compound of Formula Ia 600 mg (6×100 mg capsules) PO within 20 minutes following the completion of a standard high-fat breakfast. There was a 7-day wash-out period between receiving treatments.\nSubjects receiving Treatment A received a formulation of compound of Formula Ia comprised of compound of Formula Ia and a pharmaceutically acceptable carrier, such as microcrystalline cellulose, while continuing to fast, while subjects randomized to Treatment B consumed a standardized high-fat meal prior to compound administration (within 20 minutes prior to the compound administration). The capsules along with approximately 240 mL of water were swallowed whole, not chewed or crushed. […] Water was permitted as desired except for 1 hour before and after compound administration. A washout period of at least 7 days separated the two treatment periods. Upon return to the clinic, subjects underwent the same procedures as the first period and continued the randomization sequence (subjects who received compound of Formula Ia fasted in Period 1 and then received compound of Formula Ia under fed conditions in Period 2, and vice versa).\nBlood samples (7 mL each) for the determination of compound of Formula Ia levels were drawn immediately prior to dosing (0 hour), and at 0.5, 1, 1.5, 2, 2.5, 3, 4, 5, 6, 8, 12, 24, 36, and 48 hours after dosing. The blood samples were collected into tubes containing EDTA. The samples were centrifuged at 1500 g for 10 minutes to obtain plasma and the plasma samples were frozen at −20° C. and maintained in the frozen state until assayed.\nPlasma concentrations of compound of Formula Ia were determined using a validated liquid chromatography tandem mass spectrometry (LC-MS/MS) method. The assay lower limit of quantitation (LLOQ) was 0.50 ng/mL and the method was validated over the concentration range of 0.50 to 1000 ng/mL.\nThe mean and percent coefficient of variation (% CV) were calculated for plasma concentrations of compound of Formula Ia at each time point. Concentration values less than the assay LLOQ were reported as, and set to zero in the tables and calculations. The plasma concentration-time data for compound of Formula Ia were subjected to pharmacokinetic analysis by noncompartmental methods using WinNonlin software. Nominal sampling times were used for pharmacokinetic analysis, since none of the pharmacokinetic sampling time deviations were >10% of the nominal times. For each subject, the following pharmacokinetic parameters were determined for compound of Formula Ia: maximum plasma concentration (Cmax), time of maximum observed plasma concentration (Tmax), the final quantifiable sampling time (tf), area under the plasma concentration-time curve from time 0 to tf (AUC[tf]), AUC(I) (AUC[tf]+C[tf]estimated/K) and Vd/F. The K and C(tf)estimated are defined as terminal elimination rate constant and estimated concentration at final quantifiable sample, respectively. Terminal phase half-life (t½=In2/K) and apparent clearance (CL/F=Dose/AUC[I]) were also determined. Cmax, Tmax and tf were the observed values. […]"}, "[4]": {"details": "human, plasma, oral, summary range, dose not stated"}}, "data": [{"smiles": "CC(C)(C)NC(=O)N[C@H](C(=O)N1C[C@H]2[C@@H]([C@H]1C(=O)NC(CC1CCC1)C(=O)C(N)=O)C2(C)C)C(C)(C)C", "note": "(mixture of isomers) [Formula Ia, (1R,5S)-N-[3-Amino-1-(Cyclobutylmethyl)-2,3-Dioxopropyl]-3-[2(S)-[[[(1,1-Dimethylethyl)Amino]Carbonyl]Amino]-3,3-Dimethyl-1-Oxobutyl]-6,6-Dimethyl-3-Azabicyclo[3.1.0]Hexan-2(S)-Carboxamide]", "values": [{"measurement": "IC50", "setting": "[1]; Hepatitis C virus, Huh-7, 72 h, read-out: IC50 for suppression of the HCV replicon", "value": "≤ 200", "unit": "nM"}, {"measurement": "IC90", "setting": "[1]; Hepatitis C virus, Huh-7, 72 h, read-out: IC90 for suppression of the HCV replicon", "value": "≤ 400", "unit": "nM"}, {"measurement": "replicon RNA decrease compared with 6×IC90", "setting": "[1]; exposure to 12×IC90 (5 μM)", "value": "comparable results"}, {"measurement": "virus level in serum", "setting": "HCV", "value": "< 100", "unit": "copies/ml"}, {"measurement": "increase of bioavailability", "setting": "[2]; fed subjects", "value": "about 100%"}, {"measurement": "increase of mean Tmax", "setting": "[2]; fed subjects", "value": "about 60%"}, {"measurement": "Cmax", "setting": "[2]; [4]", "value": "50 to 800", "unit": "ng/mL"}, {"measurement": "Tmax", "setting": "[2]; [4]", "value": "1 to 5", "unit": "h"}, {"measurement": "Vd/F", "setting": "[2]; [4]", "value": "1500 to 6000", "unit": "L"}, {"measurement": "half-life", "setting": "[2]; [4]", "value": "120 to 900", "unit": "min"}, {"measurement": "AUC(0-t)", "setting": "[2]; human, plasma, oral, summary range, dose not stated, read-out: AUC(0-8 hr)", "value": "500 to 3000", "unit": "ng·h/mL"}, {"measurement": "apparent mean Vd/F, fed versus fasted (times lower)", "setting": "[3]; 600 mg oral", "value": "about five"}, {"measurement": "safety profile", "setting": "[3]; 600 mg oral dose, fed and fasted states", "value": "low frequency of treatment emergent and treatment related AEs"}, {"measurement": "delay of median Tmax, fed versus fasted", "setting": "[3]; 600 mg single oral dose", "value": "approximately three"}, {"measurement": "median concentration at 8 hours, fed relative to fasted", "setting": "[3]; 600 mg single oral dose", "value": "more than 4 fold"}, {"measurement": "median concentration at 12 hours, fed relative to fasted", "setting": "[3]; 600 mg single oral dose", "value": 2, "unit": "fold"}, {"measurement": "AUC(I)", "setting": "[3]; 600 mg single oral dose, fed, mean, n=19", "value": 3697, "unit": "ng·h/mL"}, {"measurement": "AUC(l) ratio estimate, fed to fasted", "setting": "[3]; 600 mg, female, n=10", "value": 225, "unit": "%"}, {"measurement": "AUC(tf) ratio estimate, fed to fasted", "setting": "[3]; 600 mg, female, n=10", "value": 229, "unit": "%"}, {"measurement": "Cmax ratio estimate, fed to fasted", "setting": "[3]; 600 mg, female, n=10", "value": 170, "unit": "%"}, {"measurement": "increase of relative (oral) bioavailability (AUC) in the fed state", "setting": "[3]; 600 mg, high-fat meal relative to fasted", "value": "over 100%"}, {"measurement": "AUC(l) ratio estimate, fed to fasted", "setting": "[3]; 600 mg, male, n=10", "value": 202, "unit": "%"}, {"measurement": "AUC(tf) ratio estimate, fed to fasted", "setting": "[3]; 600 mg, male, n=10", "value": 205, "unit": "%"}, {"measurement": "Cmax ratio estimate, fed to fasted", "setting": "[3]; 600 mg, male, n=10", "value": 155, "unit": "%"}, {"measurement": "AUC(l) ratio estimate, fed to fasted", "setting": "[3]; 600 mg, n=20", "value": 214, "unit": "%"}, {"measurement": "AUC(tf) ratio estimate, fed to fasted", "setting": "[3]; 600 mg, n=20", "value": 217, "unit": "%"}, {"measurement": "Cmax ratio estimate, fed to fasted", "setting": "[3]; 600 mg, n=20", "value": 162, "unit": "%"}, {"measurement": "absorption lag time in the fed state vs the fasted state", "setting": "[3]; in 12 of the 20 subjects who completed both periods", "value": "> 0.5", "unit": "h"}]}]}
